# Laboratory results from US5750531A, “Pyrimidine derivatives and processes for the preparation thereof” (Yuhan Corporation, priority 1994, dated 1998).
# Counter-ions that a name gives are not always drawn.
# Experiments:
# [1] = molecular target: proton pump(H^+ /K^+ ATPase); experiment: Inhibition of proton pump(H^+ /K^+ ATPase) activity; format: biochemical; conditions: pH 6.0, 37° C., 30 minutes preincubation and 30 minutes reaction; read-out: IC50 Test compound
# Procedure: Test 1: Inhibition of proton pump(H^+ /K^+ ATPase) activity
# A proton pump enzyme source was prepared by the same method as in Experiment 1-1 of WO 94/14795. Further, the inhibitory effect of proton pump activity was measured by the same method as in Experiment 1-2 of WO 94/14795.
# Namely, the proton pump activity stimulated by Mg^++ was used as a negative comparative group, and the activity stimulated by Mg^++ and K^+ was used as a positive comparative group. The comparative compound was omeprazole.
# Test tubes were divided into 4 groups: Group 1 as negative comparative group(n=3), Group 2 as positive comparative group(n=3), Group 3(n=5×2) to be administered with the compound of the present invention and Group 4(n=5×2) to be administered with the comparative compound.
# The inhibitory effects of Groups 3 and 4 on proton pump activity were measured by employing the compound prepared in Example and omeperazole, respectively, each of which was dissolved in dimethylsulfoxide at 5 different concentrations.
# To each of Groups 1, 2, 3 and 4 were added 100 μl of magnesium chloride(40 mM) dissolved in 40 mM Tris-HCl buffer(pH 6.0) and 100μ of the enzyme source. Then, 50μ of potassium chloride(50 mM) and 50 μl of ammonium chloride(6 mM) dissolved in 40 mM Tris-HCl buffer(pH 6.0) were added to all groups except for Group 1.
# 10 μl of dimethylsulfoxide was added to each of Groups 1 and 2; and to Group 3 was added 10 μl of the solution in which the compound prepared in Example was dissolved in dimethylsulfoxide at 5 different concentrations(n=5×2). To Group 4, 10 μl of the solution prepared by dissolving omeprazole in dimethylsulfoxide at 5 different concentrations(37.6, 21.4, 12.2, 7.0 and 4.0 μM) was added(n=5×2). 40 mM Tris-HCl buffer(pH=6.0) was added thereto so as to make the total volume 400 μl.
# Thereafter, the test tubes of each Group were placed at 37° C. for 30 minutes for the preincubation. 100 μl of ATP solution (6.6 mM) was added until the reaction volume became 500 μl. After the reaction was carried out at 37° C. for 30 minutes, 25% cold trichloroacetic acid was added to terminate the enzyme reaction. The released inorganic phosphate was measured by an automatic analyzer(Express 550, Corning).
# The difference between Group 1 and Group 2 represents the proton pump activity activated by K^+ only. The inhibition percentages of Groups 3 and 4 were calculated from Litchfield-wilcoxon equation[see, e.g., J. pharmacol. Exp. Ther., 96, 99(1949)]. The concentrations of the test compounds which inhibit 50% of the proton pump activity are represented as IC50 in Table 1.
# gastric secretion = experiment: Inhibition of gastric secretion (pylorus ligation, Shay method); format: in vivo, Male Sprague-Dawley rats; conditions: 20 mg/kg intraduodenally, 5 hours; for Rel. Conc.: acid concentration relative to omeprazole; for Relative Acid Output: acid output relative to omeprazole; for Rel. Vol.: gastric juice volume relative to omeprazole
# Procedure: Inhibition of gastric secretion […] Under ether anesthesia, the abdomen was incised, and the pylorus was ligated. […] After closing the abdominal cavity, the rats were placed for 5 hours and then killed by cervical dislocation. The stomach was extracted to obtain gastric juice. The gastric juice was centrifuged at 1,000 g to remove precipitates. The amount and acidity of the gastric juice were measured. Relative volumes, relative acid concentrations and relative acid outputs of the test compounds were calculated from equations(I), (II) and (III) and the results are shown in Table 2. […] Group 3) (II) […] (III)
SMILES,IC50 [1] [µM],Rel. Conc. (gastric secretion),Relative Acid Output (gastric secretion),Rel. Vol. (gastric secretion)
"CCc1cc(N2CCc3ccccc3C2)nc(N(C)c2ccccc2)n1.Cl [Example 39, 6-ethyl-2-(N-methylphenylamino)-4-(1,2,3,4-tetrahydroisoquinolin-2-yl)pyrimidine hydrochloride]",> 15,0.18,0.56,0.58
"CCc1nc(Nc2ccc(F)cc2C)nc(N2CCc3ccccc3C2)c1C.Cl [Example 44, 5-methyl-6-ethyl-2-(2-methyl-4-fluorophenylamino)-4-(1,2,3,4-tetrahydroisoquinolin-2-yl)pyrimidine hydrochloride]",~11.3,0.33,0.41,0.27
"CCc1nc(N(C)c2ccccc2)nc(N2CCc3ccccc3C2)c1C.Cl [Example 46, 5-methyl-6-ethyl-2-(N-methylphenylamino)-4-(1,2,3,4-tetrahydroisoquinolin-2-yl)pyrimidine hydrochloride]",~19.2,0.44,0.74,0.73
"Cl.Fc1ccc(Nc2nc3c(c(N4CCc5ccccc5C4)n2)CCCC3)cc1 [Example 49, 2-(4-fluorophenylamino)-4-(1,2,3,4-tetrahydroisoquinolin-2-yl)-5,6,7,8-tetrahydroquinazoline hydrochloride]",~10.8,0.02,0.16,0.2
"CN(c1ccccc1)c1nc2c(c(N3CCc4ccccc4C3)n1)CCCC2.Cl [Example 50, 2-(N-methylphenylamino)-4-(1,2,3,4-tetrahydroisoquinolin-2-yl)-5,6,7,8-tetrahydroquinazoline hydrochloride]",~16.9,0.29,0.66,0.72
"Cc1cc(N2CCc3ccsc3C2C)nc(N(C)c2ccccc2)n1.Cl (centres unmarked) [Example 54, 6-methyl-2-(N-methylphenylamino)-4-(7-methyl-4,5,6,7-tetrahydrothieno[2,3-c]pyridin-6-yl)pyrimidine hydrochloride]",20.6,0.23,0.75,0.86
"Cc1cc(Nc2ccc(F)cc2)nc(N2CCc3ccccc3C2C)n1.Cl (centres unmarked) [Example 58, 6-methyl-4-(4-fluorophenylamino)-2-(1-methyl-1,2,3,4-tetrahydroisoquinolin-2-yl)pyrimidine hydrochloride]",> 25,0.16,0.35,0.58
"Cc1cc(Nc2ccc(F)cc2C)nc(N2CCc3ccsc3C2C)n1.Cl (centres unmarked) [Example 59, 6-methyl-4-(2-methyl-4-fluorophenylamino)-2-(7-methyl-4,5,6,7-tetrahydrothieno[2,3-c]pyridin-6-yl)pyrimidine hydrochloride]",~12.5,0.25,0.56,0.51

# Stronger by IC50 [1], values ahead:
IC50 [1] [µM],SMILES,Rel. Conc. (gastric secretion),Relative Acid Output (gastric secretion),Rel. Vol. (gastric secretion)
2.2,"CCc1cc(N2CCc3ccccc3C2)nc(Nc2ccc(F)cc2)n1.Cl [Example 38, 6-ethyl-2-(4-fluorophenylamino)-4-(1,2,3,4-tetrahydroisoquinolin-2-yl)pyrimidine hydrochloride]",0.37,0.74,0.74
0.7,"CCc1cc(N2CCc3ccccc3C2)nc(Nc2ccccc2C)n1.Cl [Example 40, 6-ethyl-2-(2-methylphenylamino)-4-(1,2,3,4-tetrahydroisoquinolin-2-yl)pyrimidine hydrochloride]",0.36,0.74,0.71
0.6,"Cc1cc(F)ccc1Nc1nc(C)c(C)c(N2CCc3ccccc3C2)n1.Cl [Example 41, 5,6-dimethyl-2-(2-methyl-4-fluorophenylamino)-4-(1,2,3,4-tetrahydroisoquinolin-2-yl)pyrimidine hydrochloride]",1.87,1.12,0.94
1.5,"Cc1nc(Nc2ccc(F)cc2)nc(N2CCc3ccccc3C2)c1C.Cl [Example 42, 5,6-dimethyl-2-(4-fluorophenylamino)-4-(1,2,3,4-tetrahydroisoquinolin-2-yl)pyrimidine hydrochloride]",1.4,1.15,1.15
3.1,"CCc1nc(Nc2ccc(F)cc2)nc(N2CCc3ccccc3C2)c1C.Cl [Example 45, 5-methyl-6-ethyl-2-(4-fluorophenylamino)-4-(1,2,3,4-tetrahydroisoquinolin-2-yl)pyrimidine hydrochloride]",0.75,0.89,0.84
~5,"Cc1cc(F)ccc1Nc1nc2c(c(N3CCc4ccccc4C3)n1)CCC2 [Example 47, 2-(2-methyl-4-fluorophenylamino)-4-(1,2,3,4-tetrahydroisoquinolin-2-yl)cyclopenta[d]pyrimidine hydrochloride]",0.14,0.38,0.38
~5.5,"Cc1cc(F)ccc1Nc1nc2c(c(N3CCc4ccccc4C3)n1)CCCC2.Cl [Example 48, 2-(2-methyl-4-fluorophenylamino)-4-(1,2,3,4-tetrahydroisoquinolin-2-yl)-5,6,7,8-tetrahydroquinazoline hydrochloride]",0.04,0.16,0.17
1.1,"Cc1ccccc1Nc1nc2c(c(N3CCc4ccccc4C3)n1)CCCC2.Cl [Example 51, 2-(2-methylphenylamino)-4-(1,2,3,4-tetrahydroisoquinolin-2-yl)-5,6,7,8-tetrahydroquinazoline hydrochloride]",0.12,0.59,0.59
0.5,"Cc1cc(N2CCc3ccsc3C2C)nc(Nc2ccc(F)cc2C)n1.Cl (centres unmarked) [Example 52, 6-methyl-2-(2-methyl-4-fluorophenylamino)-4-(7-methyl-4,5,6,7-tetrahydrothieno[2,3-c]pyridin-6-yl)pyrimidine hydrochloride]",0.94,1.12,1.34
2.1,"Cc1cc(N2CCc3ccsc3C2C)nc(Nc2ccc(F)cc2)n1.Cl (centres unmarked) [Example 53, 6-methyl-4-(7-methyl-4,5,6,7-tetrahydrothieno[2,3-c]pyridin-6-yl)-2-(4-fluorophenylamino)pyrimidine hydrochloride]",1.14,0.55,0.47
2.1,"Cc1cc(F)ccc1Nc1nc(C)c(C)c(N2CCc3ccsc3C2C)n1.Cl (centres unmarked) [Example 55, 5,6-dimethyl-2-(2-methyl-4-fluorophenylamino)-4-(7-methyl-4,5,6,7-tetrahydrothieno[2,3-c]pyridin-6-yl)pyrimidine hydrochloride]",0.11,0.51,0.56
3.3,"Cc1cc(Nc2ccc(F)cc2C)nc(N2CCc3ccccc3C2C)n1.Cl (centres unmarked) [Example 57, 6-methyl-4-(2-methyl-4-fluorophenylamino)-2-(1-methyl-1,2,3,4-tetrahydroisoquinolin-2-yl)pyrimidine hydrochloride]",0.27,0.61,1.2
